Results from ChEMBL document CHEMBL3872253, “Synthesis and in vitro antiproliferative activity of C5-benzyl substituted 2-amino-pyrrolo[2,3-d]pyrimidines as potent Hsp90 inhibitors” (Bioorg Med Chem Lett, 2017).

Experiments:
[1] = biological target: Heat shock protein HSP 90-alpha (Homo sapiens, UniProt P07900); experiment: Inhibition of FITC-labeled geldanamycin binding to human Hsp90alpha by fluorescence polarization assay
[2] = biological target: T1, Heat shock protein HSP90 (Homo sapiens) (UniProt P07900+P08238); experiment: Inhibition of Hsp90 in human MCF7 cells assessed as proteasomal degradation of EGFR after 24 hrs by Western blot analysis; type: cell-based
[3] = biological target: T1, Heat shock protein HSP90 (Homo sapiens); experiment: Inhibition of Hsp90 in human MCF7 cells assessed as proteasomal degradation of Her2 after 24 hrs by Western blot analysis; type: cell-based
[4] = biological target: T1, Heat shock protein HSP90 (Homo sapiens); experiment: Inhibition of Hsp90 in human MCF7 cells assessed as proteasomal degradation of Akt after 24 hrs by Western blot analysis; type: cell-based
[5] = biological target: T1, Heat shock protein HSP90 (Homo sapiens); experiment: Inhibition of Hsp90 in human MCF7 cells assessed as proteasomal degradation of Cdk4 after 24 hrs by Western blot analysis; type: cell-based
[6] = biological target: T1, Heat shock protein HSP90 (Homo sapiens); experiment: Inhibition of HSP90 in human MCF7 cells assessed as increase in expression level of Hsp70 after 24 hrs by Western blot analysis; type: cell-based
[7] = Growth inhibition of human HFF1 cells at 10 uM after 72 hrs by MTT assay; type: cell-based, HFF-1
[8] = Growth inhibition of human HCT116 cells at 10 uM after 72 hrs by MTT assay; type: functional; details: HCT-116, 72 h
[9] = Growth inhibition of human SKBR3 cells at 10 uM after 72 hrs by MTT assay; type: functional; details: SK-BR-3, 72 h
[10] = Growth inhibition of human MCF7 cells at 10 uM after 72 hrs by MTT assay; type: functional; details: MCF7, 72 h
[11] = Growth inhibition of human MDA-MB-468 cells after 48 hrs by sulforhodamine B assay; type: functional; details: MDA-MB-468, 48 h
[12] = Cytotoxicity against human Hs 578T cells after 48 hrs by sulforhodamine B assay; type: functional
[13] = Cytotoxicity against human NCI-ADR-RES cells after 48 hrs by sulforhodamine B assay; type: functional
[14] = Cytotoxicity against human A549/ATCC cells after 48 hrs by sulforhodamine B assay; type: functional; details: A549, 48 h
[15] = Cytotoxicity against human SR cells after 48 hrs by sulforhodamine B assay; type: functional
cells [16] = details: Homo sapiens, T47D, 48 h
Description: Cytotoxicity against human T47D cells after 48 hrs by sulforhodamine B assay

cells [17] = details: Homo sapiens, BT-549, 48 h
Description: Cytotoxicity against human BT549 cells after 48 hrs by sulforhodamine B assay

cells [18] = details: Homo sapiens, MDA-MB-231, 48 h
Description: Cytotoxicity against human MDA-MB-231 cells after 48 hrs by sulforhodamine B assay

cells [19] = details: Homo sapiens, MCF7, 48 h
Description: Cytotoxicity against human MCF7 cells after 48 hrs by sulforhodamine B assay

cells [20] = details: Homo sapiens, DU-145, 48 h
Description: Cytotoxicity against human DU145 cells after 48 hrs by sulforhodamine B assay

cells [21] = details: Homo sapiens, PC-3, 48 h
Description: Cytotoxicity against human PC3 cells after 48 hrs by sulforhodamine B assay

cells [22] = details: Homo sapiens, UO-31, 48 h
Description: Cytotoxicity against human UO31 cells after 48 hrs by sulforhodamine B assay

cells [23] = details: Homo sapiens, TK-10, 48 h
Description: Cytotoxicity against human TK10 cells after 48 hrs by sulforhodamine B assay

cells [24] = details: Homo sapiens, SN12C, 48 h
Description: Cytotoxicity against human SN12C cells after 48 hrs by sulforhodamine B assay

cells [25] = details: Homo sapiens, RXF 393, 48 h
Description: Cytotoxicity against human RXF393 cells after 48 hrs by sulforhodamine B assay

cells [26] = details: Homo sapiens, CAKI-1, 48 h
Description: Cytotoxicity against human Caki1 cells after 48 hrs by sulforhodamine B assay

cells [27] = details: Homo sapiens, ACHN, 48 h
Description: Cytotoxicity against human ACHN cells after 48 hrs by sulforhodamine B assay

cells [28] = details: Homo sapiens, A498, 48 h
Description: Cytotoxicity against human A498 cells after 48 hrs by sulforhodamine B assay

cells [29] = details: Homo sapiens, SK-OV-3, 48 h
Description: Cytotoxicity against human SKOV3 cells after 48 hrs by sulforhodamine B assay

cells [30] = details: Homo sapiens, 786-0, 48 h
Description: Cytotoxicity against human 786-0 cells after 48 hrs by sulforhodamine B assay

cells [31] = details: Homo sapiens, OVCAR-8, 48 h
Description: Cytotoxicity against human OVCAR8 cells after 48 hrs by sulforhodamine B assay

cells [32] = details: Homo sapiens, OVCAR-5, 48 h
Description: Cytotoxicity against human OVCAR5 cells after 48 hrs by sulforhodamine B assay

cells [33] = details: Homo sapiens, OVCAR-4, 48 h
Description: Cytotoxicity against human OVCAR4 cells after 48 hrs by sulforhodamine B assay

cells [34] = details: Homo sapiens, OVCAR-3, 48 h
Description: Cytotoxicity against human OVCAR3 cells after 48 hrs by sulforhodamine B assay

cells [35] = details: Homo sapiens, IGROV-1, 48 h
Description: Cytotoxicity against human IGROV1 cells after 48 hrs by sulforhodamine B assay

cells [36] = details: Homo sapiens, UACC-62, 48 h
Description: Cytotoxicity against human UACC62 cells after 48 hrs by sulforhodamine B assay

cells [37] = details: Homo sapiens, UACC-257, 48 h
Description: Cytotoxicity against human UACC257 cells after 48 hrs by sulforhodamine B assay

cells [38] = details: Homo sapiens, SK-MEL-28, 48 h
Description: Cytotoxicity against human SK-MEL-28 cells after 48 hrs by sulforhodamine B assay

cells [39] = details: Homo sapiens, SK-MEL-5, 48 h
Description: Cytotoxicity against human SK-MEL-5 cells after 48 hrs by sulforhodamine B assay

cells [40] = details: Homo sapiens, SK-MEL-2, 48 h
Description: Cytotoxicity against human SK-MEL-2 cells after 48 hrs by sulforhodamine B assay

cells [41] = details: Homo sapiens, MDA-MB-435, 48 h
Description: Cytotoxicity against human MDA-MB-435 cells after 48 hrs by sulforhodamine B assay

cells [42] = details: Homo sapiens, M14, 48 h
Description: Cytotoxicity against human M14 cells after 48 hrs by sulforhodamine B assay

cells [43] = details: Homo sapiens, Malme-3M, 48 h
Description: Cytotoxicity against human MALME-3M cells after 48 hrs by sulforhodamine B assay

cells [44] = details: Homo sapiens, LOX IMVI, 48 h
Description: Cytotoxicity against human LOXIMVI cells after 48 hrs by sulforhodamine B assay

cells [45] = details: Homo sapiens, U-251, 48 h
Description: Cytotoxicity against human U251 cells after 48 hrs by sulforhodamine B assay

cells [46] = details: Homo sapiens, SNB-19, 48 h
Description: Cytotoxicity against human SNB19 cells after 48 hrs by sulforhodamine B assay

cells [47] = details: Homo sapiens, SNB-75, 48 h
Description: Cytotoxicity against human SNB75 cells after 48 hrs by sulforhodamine B assay

cells [48] = details: Homo sapiens, SF-539, 48 h
Description: Cytotoxicity against human SF539 cells after 48 hrs by sulforhodamine B assay

cells [49] = details: Homo sapiens, SF-295, 48 h
Description: Cytotoxicity against human SF295 cells after 48 hrs by sulforhodamine B assay

cells [50] = details: Homo sapiens, SF-268, 48 h
Description: Cytotoxicity against human SF268 cells after 48 hrs by sulforhodamine B assay

cells [51] = details: Homo sapiens, SW-620, 48 h
Description: Cytotoxicity against human SW620 cells after 48 hrs by sulforhodamine B assay

cells [52] = details: Homo sapiens, KM12, 48 h
Description: Cytotoxicity against human KM12 cells after 48 hrs by sulforhodamine B assay

cells [53] = details: Homo sapiens, HT-29, 48 h
Description: Cytotoxicity against human HT-29 cells after 48 hrs by sulforhodamine B assay

cells [54] = details: Homo sapiens, HCT-116, 48 h
Description: Cytotoxicity against human HCT116 cells after 48 hrs by sulforhodamine B assay

cells [55] = details: Homo sapiens, HCT-15, 48 h
Description: Cytotoxicity against human HCT15 cells after 48 hrs by sulforhodamine B assay

cells [56] = details: Homo sapiens, HCC 2998, 48 h
Description: Cytotoxicity against human HCC2998 cells after 48 hrs by sulforhodamine B assay

cells [57] = details: Homo sapiens, COLO 205, 48 h
Description: Cytotoxicity against human COLO205 cells after 48 hrs by sulforhodamine B assay

cells [58] = details: Homo sapiens, NCI-H522, 48 h
Description: Cytotoxicity against human NCI-H522 cells after 48 hrs by sulforhodamine B assay

cells [59] = details: Homo sapiens, NCI-H460, 48 h
Description: Cytotoxicity against human NCI-H460 cells after 48 hrs by sulforhodamine B assay

cells [60] = details: Homo sapiens, NCI-H23, 48 h
Description: Cytotoxicity against human NCI-H23 cells after 48 hrs by sulforhodamine B assay

cells [61] = details: Homo sapiens, NCI-H226, 48 h
Description: Cytotoxicity against human NCI-H226 cells after 48 hrs by sulforhodamine B assay

cells [62] = details: Homo sapiens, HOP-62, 48 h
Description: Cytotoxicity against human HOP62 cells after 48 hrs by sulforhodamine B assay

cells [63] = details: Homo sapiens, HOP-92, 48 h
Description: Cytotoxicity against human HOP92 cells after 48 hrs by sulforhodamine B assay

cells [64] = details: Homo sapiens, EKVX, 48 h
Description: Cytotoxicity against human EKVX cells after 48 hrs by sulforhodamine B assay

cells [65] = details: Homo sapiens, RPMI-8226, 48 h
Description: Cytotoxicity against human RPMI8226 cells after 48 hrs by sulforhodamine B assay

cells [66] = details: Homo sapiens, MOLT-4, 48 h
Description: Cytotoxicity against human MOLT4 cells after 48 hrs by sulforhodamine B assay

cells [67] = details: Homo sapiens, K562, 48 h
Description: Cytotoxicity against human K562 cells after 48 hrs by sulforhodamine B assay

cells [68] = details: Homo sapiens, CCRF-CEM, 48 h
Description: Cytotoxicity against human CCRF-CEM cells after 48 hrs by sulforhodamine B assay

cells [69] = details: Homo sapiens, HL-60, 48 h
Description: Cytotoxicity against human HL-60(TB) cells after 48 hrs by sulforhodamine B assay

COc1c(C)cnc(Cn2cc(Cc3ccccc3)c3c(Cl)nc(N)nc32)c1C
IC50 [1]: 36 nM | inhibition [2]: Dose-dependent effect | inhibition [3]: Dose-dependent effect | inhibition [4]: Dose-dependent effect | inhibition [5]: Dose-dependent effect | inhibition [6]: Dose-dependent effect

COc1ccc(Cc2cn(Cc3ncc(C)c(OC)c3C)c3nc(N)nc(Cl)c23)cc1
inhibition at 72 h, 10 µM [7]: 10.1% | inhibition at 10 µM [8]: 80.9% | inhibition at 10 µM [9]: 69.4% | inhibition at 10 µM [10]: 80.1% | IC50 [1]: 94 nM

COc1c(C)cnc(Cn2cc(Cc3cccc(C)c3)c3c(Cl)nc(N)nc32)c1C
IC50 [1]: 51 nM

COc1cc(Cc2cn(Cc3ncc(C)c(OC)c3C)c3nc(N)nc(Cl)c23)ccc1Br
IC50 [1]: 79 nM

Nc1nc(Cl)c2c(Cc3ccccc3)cn(Cc3cc4c(cc3I)OCO4)c2n1
inhibition at 72 h, 10 µM [7]: 36.2% | inhibition at 10 µM [8]: 74.5% | inhibition at 10 µM [9]: 63.8% | inhibition at 10 µM [10]: 74% | IC50 [1]: 750 nM

COc1c(C)cnc(Cn2cc(Cc3ccc(C)cc3)c3c(Cl)nc(N)nc32)c1C
IC50 [1]: 58 nM

Nc1nc(Cl)c2c(Cc3ccccc3)cn(Cc3ccc4c(c3)OCO4)c2n1
inhibition at 72 h, 10 µM [7]: 11.2% | inhibition at 10 µM [8]: 48.8% | inhibition at 10 µM [9]: 4.32% | inhibition at 10 µM [10]: 54%

COc1c(C)cnc(Cn2cc(Cc3ccc(Cl)cc3)c3c(Cl)nc(N)nc32)c1C
IC50 [1]: 48 nM

Nc1nc(Cl)c2c(Cc3ccccc3)cn(Cc3cc4c(cc3Br)OCO4)c2n1
inhibition at 72 h, 10 µM [7]: 20.7% | inhibition at 10 µM [8]: 70.4% | inhibition at 10 µM [9]: 40.9% | inhibition at 10 µM [10]: 69.9% | IC50 [1]: 650 nM

COc1c(C)cnc(Cn2cc(Cc3cccc(C(F)(F)F)c3)c3c(Cl)nc(N)nc32)c1C
IC50 [1]: 8700 nM

COc1c(C)cnc(Cn2cnc3c(Cl)nc(N)nc32)c1C [BIIB021]
inhibition at 72 h, 10 µM [7]: 51.3% | inhibition at 10 µM [8]: 71.9% | inhibition at 10 µM [9]: 86.2% | inhibition at 10 µM [10]: 84.8%

CC(C)NCCCn1c(Sc2cc3c(cc2I)OCO3)nc2c(N)ncnc21 [PU-H71]
GI50 [11]: 83 nM | inhibition at 10 µM [8]: 78.4% | inhibition at 10 µM [9]: 65.3% | inhibition at 10 µM [10]: 70.5% | GI50 [12]: 1290 nM | GI50 [13]: 3630 nM | GI50 [14]: 87 nM | GI50 [15]: 60 nM | GI50 (cells [16]): 155 nM | GI50 (cells [17]): 1510 nM | GI50 (cells [18]): 479 nM | GI50 (cells [19]): 46 nM | GI50 (cells [20]): 48 nM | GI50 (cells [21]): 132 nM | GI50 (cells [22]): 324 nM | GI50 (cells [23]): 162 nM | GI50 (cells [24]): 174 nM | GI50 (cells [25]): 759 nM | GI50 (cells [26]): 525 nM | GI50 (cells [27]): 295 nM | GI50 (cells [28]): 437 nM | GI50 (cells [29]): 45 nM | GI50 (cells [30]): 513 nM | GI50 (cells [31]): 155 nM | GI50 (cells [32]): 3020 nM | GI50 (cells [33]): 33100 nM | GI50 (cells [34]): 589 nM | GI50 (cells [35]): 89 nM | GI50 (cells [36]): 372 nM | GI50 (cells [37]): 309 nM | GI50 (cells [38]): 417 nM | GI50 (cells [39]): 457 nM | GI50 (cells [40]): 355 nM | GI50 (cells [41]): 91 nM | GI50 (cells [42]): 234 nM | GI50 (cells [43]): 123 nM | GI50 (cells [44]): 79 nM | GI50 (cells [45]): 129 nM | GI50 (cells [46]): 646 nM | GI50 (cells [47]): 724 nM | GI50 (cells [48]): 851 nM | GI50 (cells [49]): 145 nM | GI50 (cells [50]): 2090 nM | GI50 (cells [51]): 59 nM | GI50 (cells [52]): 59 nM | GI50 (cells [53]): 38 nM | GI50 (cells [54]): 63 nM | GI50 (cells [55]): 437 nM | GI50 (cells [56]): 282 nM | GI50 (cells [57]): 48 nM | GI50 (cells [58]): 59 nM | GI50 (cells [59]): 58 nM | GI50 (cells [60]): 89 nM | GI50 (cells [61]): 759 nM | GI50 (cells [62]): 263 nM | GI50 (cells [63]): 288 nM | GI50 (cells [64]): 2510 nM | GI50 (cells [65]): 1510 nM | GI50 (cells [66]): 91 nM | GI50 (cells [67]): 71 nM | GI50 (cells [68]): 427 nM | GI50 (cells [69]): 63 nM

C=CCNC1=C2C[C@@H](C)C[C@H](OC)[C@H](O)[C@@H](C)/C=C(\C)[C@H](OC(N)=O)[C@@H](OC)/C=C\C=C(/C)C(=O)NC(=CC1=O)C2=O [TANESPIMYCIN]
inhibition at 72 h, 10 µM [7]: 65.5% | inhibition at 10 µM [8]: 74.4% | inhibition at 10 µM [9]: 88.9% | inhibition at 10 µM [10]: 79.7%
